Assay results reported in ChEMBL document CHEMBL5113513, “Selective Inhibitors of Medium-Size S1' Pocket Matrix Metalloproteinases: A Stepping Stone of Future Drug Discovery” (J Med Chem, 2022).
Values belong to the compound of their own block, whether it stands above or below them.

Assays:
[1] = biological target: T1, Matrix metalloproteinase-9 (Homo sapiens, UniProt P14780); experiment: Inhibition of MMP-9 (unknown origin) catalytic activity using Ac-PLG-[2-mercapto-4-methylpentanoyl]-LG-OC2H5 as substrate and measured upto 30 mins by microplate reader analysis
[2] = biological target: T2, 72 kDa type IV collagenase (Homo sapiens, UniProt P08253); experiment: Inhibition of MMP-2 (unknown origin) catalytic activity using Ac-PLG-[2-mercapto-4-methylpentanoyl]-LG-OC2H5 as substrate and measured upto 30 mins by microplate reader analysis
Neutrophil collagenase [3] = biological target: T3, Neutrophil collagenase (Homo sapiens, UniProt P22894); experiment: Inhibition of MMP-8 (unknown origin)
Matrilysin [4] = biological target: T4, Matrilysin (Homo sapiens, UniProt P09237); experiment: Inhibition of MMP-7 (unknown origin)
T4 sequence (P09237 whole entry): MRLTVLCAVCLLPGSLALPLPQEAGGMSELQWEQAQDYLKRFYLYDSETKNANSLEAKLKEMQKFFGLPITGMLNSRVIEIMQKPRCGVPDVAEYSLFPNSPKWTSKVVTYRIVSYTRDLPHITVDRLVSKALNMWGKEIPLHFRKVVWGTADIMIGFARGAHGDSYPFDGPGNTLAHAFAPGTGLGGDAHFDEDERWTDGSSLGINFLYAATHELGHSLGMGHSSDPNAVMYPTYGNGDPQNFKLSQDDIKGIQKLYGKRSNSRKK

Collagenase 3 [5] = biological target: T5, Collagenase 3 (Homo sapiens, UniProt P45452)
Description: Inhibition of MMP-13 (unknown origin)

Interstitial collagenase [6] = biological target: T6, Interstitial collagenase (Homo sapiens, UniProt P03956); experiment: Inhibition of MMP-1 (unknown origin)
T6 sequence (P03956 whole entry): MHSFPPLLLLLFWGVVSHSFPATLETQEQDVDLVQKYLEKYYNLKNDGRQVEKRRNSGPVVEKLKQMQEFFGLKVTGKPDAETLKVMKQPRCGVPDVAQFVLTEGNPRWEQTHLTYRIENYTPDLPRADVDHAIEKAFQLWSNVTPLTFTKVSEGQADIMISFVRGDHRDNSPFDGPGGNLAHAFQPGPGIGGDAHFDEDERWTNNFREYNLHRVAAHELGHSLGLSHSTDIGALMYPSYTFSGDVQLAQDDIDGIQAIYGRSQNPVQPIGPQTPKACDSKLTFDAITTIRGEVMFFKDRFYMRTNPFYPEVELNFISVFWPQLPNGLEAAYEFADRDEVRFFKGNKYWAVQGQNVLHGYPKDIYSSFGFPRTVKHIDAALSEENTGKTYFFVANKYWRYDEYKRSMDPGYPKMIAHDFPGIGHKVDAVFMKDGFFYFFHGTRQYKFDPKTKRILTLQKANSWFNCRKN

[7] = biological target: T7, Macrophage metalloelastase (Homo sapiens, UniProt P39900); experiment: Inhibition of MMP-12 (unknown origin)
Stromelysin-1 [8] = biological target: T8, Stromelysin-1 (Homo sapiens, UniProt P08254); experiment: Inhibition of MMP-3 (unknown origin)
Stromelysin-2 [9] = biological target: T9, Stromelysin-2 (Homo sapiens, UniProt P09238); experiment: Inhibition of MMP-10 (unknown origin)
[10] = biological target: T10, Matrix metalloproteinase-14 (Homo sapiens, UniProt P50281); experiment: Inhibition of MMP-14 (unknown origin)
[11] = biological target: T2, 72 kDa type IV collagenase
[12] = biological target: T1, Matrix metalloproteinase-9; experiment: Inhibition of MMP-9 (unknown origin)
[13] = biological target: T1, Matrix metalloproteinase-9; experiment: Inhibition of MMP-9 (unknown origin) using Mca-Pro-Leu-Gly-Leu-Dpa-Ala-Arg-NH2 as substrate by fluorimetric assay
[14] = biological target: T2, 72 kDa type IV collagenase; experiment: Inhibition of MMP-2 (unknown origin) using Mca-Pro-Leu-Gly-Leu-Dpa-Ala-Arg-NH2 as substrate by fluorimetric assay
HT-1080 = experiment: Inhibition of cell invasion in human HT-1080 cells for 24 hrs by Calcein AM staining based fluorometric analysis; assay type: functional; conditions: HT-1080, 24 h
[15] = Inhibition of recombinant human TACE using peptide substrate by ELISA
[16] = AUC in Sprague-Dawley rats at 33 mg/kg, sc; assay type: ADME, organism-based; design: dose 33 mg/kg, route sc; conditions: rat, in vivo
[17] = Half life in Sprague-Dawley rats at 33 mg/kg, sc; assay type: ADME, organism-based; conditions: rat, in vivo
[18] = Half life in Sprague-Dawley rat at 33 mg/kg, po; assay type: ADME, organism-based; conditions: in vivo
[19] = AUC in Sprague-Dawley rats at 33 mg/kg, po; assay type: ADME, organism-based; design: dose 33 mg/kg, route po; conditions: rat, in vivo
[20] = biological target: T2, 72 kDa type IV collagenase; experiment: Inhibition of recombinant human MMP-2 using peptide substrate by ELISA
[21] = biological target: T1, Matrix metalloproteinase-9; experiment: Inhibition of recombinant human MMP-9 using peptide substrate by ELISA
Collagenase 3 [22] = biological target: T5, Collagenase 3; experiment: Inhibition of recombinant human MMP-13 using peptide substrate by ELISA
[23] = biological target: T7, Macrophage metalloelastase; experiment: Inhibition of recombinant human MMP-12 using peptide substrate by ELISA
Collagenase 3 [24] = biological target: T5, Collagenase 3; experiment: Inhibition of human MMP-13 expressed in Escherichia coli BL21(DE3) using Mca-Pro-Leu-Gly-Leu-Dpa-Ala-Arg-NH2 as substrate preincubated for 30 mins followed by susbstrate addition by photon-counter spectrophotometer analysis
[25] = biological target: T10, Matrix metalloproteinase-14; experiment: Inhibition of human MMP-14 expressed in Escherichia coli BL21(DE3) using Mca-Pro-Leu-Gly-Leu-Dpa-Ala-Arg-NH2 as substrate preincubated for 30 mins followed by susbstrate addition by photon-counter spectrophotometer analysis
[26] = biological target: T1, Matrix metalloproteinase-9; experiment: Inhibition of human MMP-9 expressed in Escherichia coli BL21(DE3) using Mca-Pro-Leu-Gly-Leu-Dpa-Ala-Arg-NH2 as substrate preincubated for 30 mins followed by susbstrate addition by photon-counter spectrophotometer analysis
[27] = biological target: T2, 72 kDa type IV collagenase; experiment: Inhibition of human MMP-2 expressed in Escherichia coli BL21(DE3) using Mca-Pro-Leu-Gly-Leu-Dpa-Ala-Arg-NH2 as substrate preincubated for 30 mins followed by susbstrate addition by photon-counter spectrophotometer analysis
Stromelysin-2 [28] = biological target: T9, Stromelysin-2; experiment: Inhibition of human MMP-10 expressed in Escherichia coli BL21(DE3) using Mca-Pro-Leu-Gly-Leu-Dpa-Ala-Arg-NH2 as substrate preincubated for 30 mins followed by susbstrate addition by photon-counter spectrophotometer analysis
Neutrophil collagenase [29] = biological target: T3, Neutrophil collagenase; experiment: Inhibition of human MMP-8 expressed in Escherichia coli BL21(DE3) using Mca-Pro-Leu-Gly-Leu-Dpa-Ala-Arg-NH2 as substrate preincubated for 30 mins followed by susbstrate addition by photon-counter spectrophotometer analysis
Interstitial collagenase [30] = biological target: T6, Interstitial collagenase; experiment: Inhibition of human MMP-1 expressed in Escherichia coli BL21(DE3) using Mca-Pro-Leu-Gly-Leu-Dpa-Ala-Arg-NH2 as substrate preincubated for 30 mins followed by susbstrate addition by photon-counter spectrophotometer analysis
Stromelysin-1 [31] = biological target: T8, Stromelysin-1; experiment: Inhibition of human MMP-3 expressed in Escherichia coli BL21(DE3) using Mca-Pro-Leu-Gly-Leu-Dpa-Ala-Arg-NH2 as substrate preincubated for 30 mins followed by susbstrate addition by photon-counter spectrophotometer analysis
Matrilysin [32] = biological target: T4, Matrilysin; experiment: Inhibition of human MMP-7 expressed in Escherichia coli BL21(DE3) using Mca-Pro-Leu-Gly-Leu-Dpa-Ala-Arg-NH2 as substrate preincubated for 30 mins followed by susbstrate addition by photon-counter spectrophotometer analysis

T2 sequence (P08253 whole entry): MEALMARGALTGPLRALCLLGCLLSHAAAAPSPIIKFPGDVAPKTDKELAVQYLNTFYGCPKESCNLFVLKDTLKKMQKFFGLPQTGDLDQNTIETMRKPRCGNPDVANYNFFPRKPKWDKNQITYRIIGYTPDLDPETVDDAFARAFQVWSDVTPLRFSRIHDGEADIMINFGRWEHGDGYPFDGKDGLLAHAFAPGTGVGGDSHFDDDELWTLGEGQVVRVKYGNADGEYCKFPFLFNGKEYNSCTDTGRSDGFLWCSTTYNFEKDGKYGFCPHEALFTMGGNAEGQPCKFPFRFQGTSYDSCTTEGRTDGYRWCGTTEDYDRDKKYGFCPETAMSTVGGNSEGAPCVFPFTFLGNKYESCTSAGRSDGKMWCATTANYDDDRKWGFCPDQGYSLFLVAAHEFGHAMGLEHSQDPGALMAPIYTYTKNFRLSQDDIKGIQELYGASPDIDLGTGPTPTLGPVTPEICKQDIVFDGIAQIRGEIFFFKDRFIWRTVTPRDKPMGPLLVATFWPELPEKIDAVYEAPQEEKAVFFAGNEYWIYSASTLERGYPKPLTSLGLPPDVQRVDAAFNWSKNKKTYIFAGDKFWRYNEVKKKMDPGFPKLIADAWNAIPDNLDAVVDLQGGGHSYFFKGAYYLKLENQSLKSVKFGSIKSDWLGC
T8 sequence (P08254 whole entry): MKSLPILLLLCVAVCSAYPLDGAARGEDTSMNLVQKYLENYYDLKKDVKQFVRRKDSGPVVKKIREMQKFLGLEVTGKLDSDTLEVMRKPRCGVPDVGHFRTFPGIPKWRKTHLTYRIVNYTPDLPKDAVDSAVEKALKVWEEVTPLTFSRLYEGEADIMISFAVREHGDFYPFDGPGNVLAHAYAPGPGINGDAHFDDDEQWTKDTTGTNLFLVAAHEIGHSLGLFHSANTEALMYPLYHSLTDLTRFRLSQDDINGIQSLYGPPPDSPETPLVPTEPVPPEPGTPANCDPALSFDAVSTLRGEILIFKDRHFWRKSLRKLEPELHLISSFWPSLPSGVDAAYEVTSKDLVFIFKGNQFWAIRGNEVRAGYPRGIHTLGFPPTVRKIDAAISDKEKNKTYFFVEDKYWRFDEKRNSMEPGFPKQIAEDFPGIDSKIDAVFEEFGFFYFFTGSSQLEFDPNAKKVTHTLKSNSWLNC
T3 sequence (P22894 whole entry): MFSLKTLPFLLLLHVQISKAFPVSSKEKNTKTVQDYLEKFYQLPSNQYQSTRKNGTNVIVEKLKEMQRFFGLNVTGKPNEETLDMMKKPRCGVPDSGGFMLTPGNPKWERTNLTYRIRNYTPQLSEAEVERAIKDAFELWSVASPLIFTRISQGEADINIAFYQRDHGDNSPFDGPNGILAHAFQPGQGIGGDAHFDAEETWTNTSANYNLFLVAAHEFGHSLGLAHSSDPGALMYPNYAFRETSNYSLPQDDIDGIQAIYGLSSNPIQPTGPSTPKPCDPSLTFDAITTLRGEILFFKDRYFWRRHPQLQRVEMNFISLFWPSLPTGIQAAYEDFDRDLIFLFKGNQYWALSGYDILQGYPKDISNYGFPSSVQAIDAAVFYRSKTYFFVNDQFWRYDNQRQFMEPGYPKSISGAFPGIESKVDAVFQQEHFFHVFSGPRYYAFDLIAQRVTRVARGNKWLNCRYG
T9 sequence (P09238 whole entry): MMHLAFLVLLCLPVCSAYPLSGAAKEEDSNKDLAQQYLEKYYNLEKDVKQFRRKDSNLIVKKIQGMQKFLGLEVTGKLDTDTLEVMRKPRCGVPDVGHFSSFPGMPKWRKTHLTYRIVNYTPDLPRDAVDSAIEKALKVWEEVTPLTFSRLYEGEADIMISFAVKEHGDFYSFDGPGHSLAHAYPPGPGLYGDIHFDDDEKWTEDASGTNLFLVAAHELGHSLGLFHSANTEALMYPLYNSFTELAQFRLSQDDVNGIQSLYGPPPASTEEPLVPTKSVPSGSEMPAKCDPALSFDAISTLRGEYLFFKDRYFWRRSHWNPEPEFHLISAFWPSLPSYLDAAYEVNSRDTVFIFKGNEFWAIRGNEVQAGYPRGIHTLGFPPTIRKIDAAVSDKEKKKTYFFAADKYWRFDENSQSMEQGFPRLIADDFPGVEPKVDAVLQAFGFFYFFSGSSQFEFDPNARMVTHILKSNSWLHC
T7 sequence (P39900 whole entry): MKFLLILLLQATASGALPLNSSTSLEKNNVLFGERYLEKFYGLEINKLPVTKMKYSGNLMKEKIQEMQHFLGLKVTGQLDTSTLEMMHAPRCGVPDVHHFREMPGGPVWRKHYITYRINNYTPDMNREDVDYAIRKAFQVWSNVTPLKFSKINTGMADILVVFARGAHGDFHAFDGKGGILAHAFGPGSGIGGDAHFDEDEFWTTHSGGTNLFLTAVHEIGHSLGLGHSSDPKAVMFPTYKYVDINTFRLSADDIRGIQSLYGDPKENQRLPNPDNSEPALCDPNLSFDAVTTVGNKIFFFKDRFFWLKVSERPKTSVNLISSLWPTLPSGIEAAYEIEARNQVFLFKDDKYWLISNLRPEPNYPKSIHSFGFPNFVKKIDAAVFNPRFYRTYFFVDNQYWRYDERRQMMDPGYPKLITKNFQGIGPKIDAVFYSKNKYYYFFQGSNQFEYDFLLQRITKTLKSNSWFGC
T1 sequence (P14780 whole entry): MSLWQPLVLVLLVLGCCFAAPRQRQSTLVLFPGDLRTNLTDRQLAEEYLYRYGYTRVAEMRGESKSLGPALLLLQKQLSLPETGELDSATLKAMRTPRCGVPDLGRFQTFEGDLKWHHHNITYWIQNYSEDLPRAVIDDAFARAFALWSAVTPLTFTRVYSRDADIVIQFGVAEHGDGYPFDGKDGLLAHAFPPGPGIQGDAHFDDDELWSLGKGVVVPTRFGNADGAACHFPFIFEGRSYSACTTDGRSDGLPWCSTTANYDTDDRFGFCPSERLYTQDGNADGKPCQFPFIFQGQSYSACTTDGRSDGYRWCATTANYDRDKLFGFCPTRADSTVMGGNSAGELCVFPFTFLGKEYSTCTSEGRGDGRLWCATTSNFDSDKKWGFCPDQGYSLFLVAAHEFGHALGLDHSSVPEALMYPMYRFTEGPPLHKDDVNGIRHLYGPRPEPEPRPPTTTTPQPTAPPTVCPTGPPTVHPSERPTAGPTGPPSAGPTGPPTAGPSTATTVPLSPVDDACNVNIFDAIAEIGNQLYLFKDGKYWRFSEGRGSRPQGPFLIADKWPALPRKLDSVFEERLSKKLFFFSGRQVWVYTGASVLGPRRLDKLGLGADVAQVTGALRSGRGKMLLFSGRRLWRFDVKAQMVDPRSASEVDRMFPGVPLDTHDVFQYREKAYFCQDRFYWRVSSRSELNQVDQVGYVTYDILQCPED

IC50 [1]: 98 nM
IC50 [2]: 1.4 nM
IC50 (Neutrophil collagenase [3]): > 100 nM
IC50 (Matrilysin [4]): > 100 nM
IC50 (Collagenase 3 [5]): 0.9 nM
IC50 (Interstitial collagenase [6]): > 1000 nM
IC50 [7]: 3.2 nM
IC50 (Stromelysin-1 [8]): 17.2 nM
IC50 (Stromelysin-2 [9]): 51 nM
IC50 [10]: 65 nM
SMILES: O=C(NO)C1(S(=O)(=O)c2ccc(-n3cc(-c4ccc(-c5ccccc5)cc4)nn3)cc2)CCOCC1

IC50 [12]: 0.704 nM
SMILES: O=C(CCC(NS(=O)(=O)c1ccc(-c2ccccc2)cc1)C(=O)O)NCc1ccccc1 (stereo not given)

IC50 [13]: 1800 nM
IC50 [14]: 50 nM
SMILES: O=C(NCCCCC(NS(=O)(=O)c1ccc(-c2ccccc2)cc1)C(=O)O)OCc1ccccc1 (stereo not given)

IC50 [12]: 3.57 nM
SMILES: NC(=O)CCC(NS(=O)(=O)c1ccc(-c2ccccc2)cc1)C(=O)O (stereo not given)

IC50 [1]: 5.54 nM
IC50 [2]: 1.3 nM
IC50 (Neutrophil collagenase [3]): > 500 nM
IC50 (Matrilysin [4]): > 500 nM
IC50 (Collagenase 3 [5]): < 5 nM
IC50 (Interstitial collagenase [6]): > 10000 nM
IC50 [7]: 3.8 nM
IC50 (Stromelysin-1 [8]): 50 nM
IC50 (Stromelysin-2 [9]): 181 nM
IC50 [10]: 556 nM
SMILES: O=C(NO)C(Cc1ccccc1)NS(=O)(=O)c1ccc(-c2cn(-c3ccc(-c4ccccc4)cc3)nn2)cc1 (stereo not given)

Further lines, the compound ahead of its results:

SMILES: O=C(CS(=O)(=O)c1ccc(-c2ccccc2)cc1)NO
IC50 (Matrilysin [4]): 24 nM
IC50 (Collagenase 3 [5]): 9.8 nM
IC50 [11]: 6 nM
IC50 (Interstitial collagenase [6]): 1800 nM
IC50 (Stromelysin-1 [8]): 200 nM
IC50 [10]: 376 nM
IC50 [12]: 140 nM

SMILES: O=C(O)CS(=O)(=O)c1ccc(-c2ccccc2)cc1
IC50 (Matrilysin [4]): 14200 nM
IC50 (Collagenase 3 [5]): 101000 nM
IC50 [11]: 12500 nM
IC50 (Interstitial collagenase [6]): 380000 nM
IC50 (Stromelysin-1 [8]): 364000 nM
IC50 [10]: 165 nM
IC50 [12]: 212000 nM

SMILES: O=C(NO)C1(S(=O)(=O)c2ccc(Oc3ccc(Cl)cc3)cc2)CCOCC1
Ki (Matrilysin [4]): 1200 nM
Ki [11]: 0.22 nM
Ki (Stromelysin-1 [8]): 9.3 nM

SMILES: COc1ccc(S(=O)(=O)N(Cc2ccccc2)[C@@H](C(=O)NO)C(C)C)cc1
IC50 [7]: 7.7 nM
IC50 (Stromelysin-1 [8]): 13 nM

SMILES: C[C@H]1c2cccc(O)c2C(=O)C2=C(O)[C@]3(O)C(=O)C(C(N)=O)=C(O)[C@@H](N(C)C)[C@@H]3[C@@H](O)[C@@H]21 [DOXYCYCLINE]
IC50 (Neutrophil collagenase [3]): 26000 nM
IC50 (Matrilysin [4]): 28000 nM
IC50 (Collagenase 3 [5]): 20000 nM
IC50 [11]: 56000 nM
IC50 (Interstitial collagenase [6]): > 400000 nM
IC50 (Stromelysin-1 [8]): 32000 nM
IC50 (HT-1080): 21400 nM

SMILES: O=C(NCCCCCNS(=O)(=O)c1ccc(Oc2ccccc2)cc1)P(=O)(O)O
IC50 [15]: > 100 nM
AUC [16]: 78000 ng·h/mL
half-life [17]: 9.3 h
half-life [18]: 10.5 h
AUC [19]: 6800 ng·h/mL
IC50 [20]: 4 nM
IC50 [21]: > 100 nM
IC50 (Collagenase 3 [22]): > 60 nM
IC50 [23]: > 80 nM

SMILES: O=C(C[C@@H](CSc1ccccc1)C(=O)O)c1ccc(-c2ccc(Cl)cc2)cc1
Ki (Collagenase 3 [5]): 147000 nM
Ki [11]: 11 nM
Ki (Interstitial collagenase [6]): > 5000 nM
Ki [12]: 301 nM

SMILES: C=CC[C@H](C(=O)NO)C(CC(C)C)C(=O)N[C@@H](Cc1ccccc1)C(=O)NC (stereo not given in full)
IC50 (Neutrophil collagenase [3]): 3 nM
Ki (Neutrophil collagenase [3]): 3 nM
IC50 (Matrilysin [4]): 30 nM
Ki (Matrilysin [4]): 60 nM
Ki (Collagenase 3 [5]): 7 nM
IC50 [11]: 5 nM
Ki [11]: 4 nM
IC50 (Interstitial collagenase [6]): 10 nM
Ki (Interstitial collagenase [6]): 8 nM
Ki [7]: 5 nM
IC50 (Stromelysin-1 [8]): 30 nM
Ki (Stromelysin-1 [8]): 30 nM
Ki [10]: 10 nM
IC50 [12]: 3 nM
Ki [12]: 3 nM

SMILES: NC(=O)[C@H](CCC(=O)O)NC(=O)[C@@H](CCC(=O)O)NC(=O)CCc1ccc(-c2ccccc2)cc1
Ki (Collagenase 3 [24]): 689 nM
Ki [25]: 5900 nM
Ki [26]: 1090 nM
Ki [27]: 445 nM
Ki (Stromelysin-2 [28]): 1110 nM
Ki (Neutrophil collagenase [29]): 226 nM
Ki (Interstitial collagenase [30]): > 100000 nM
Ki (Stromelysin-1 [31]): 6700 nM
Ki (Matrilysin [32]): 24700 nM

SMILES: CN(C)c1ccc(O)c2c1C[C@H]1C[C@H]3[C@H](N(C)C)C(O)=C(C(N)=O)C(=O)[C@@]3(O)C(O)=C1C2=O [MINOCYCLINE]
IC50 (Matrilysin [4]): 125000 nM
IC50 (Stromelysin-1 [8]): 290000 nM
IC50 [12]: 180000 nM
